Test results taken from paper PMC11538350, “Synthetic studies on the tetrasubstituted D-ring of cystobactamids lead to potent terephthalic acid antibiotics” (Communications Chemistry, 2024).

These compounds were tested on ESKAPE strains (assay: MIC-assays on a panel of representative ESKAPE strains, summary in words). Settings: summary of the MIC tables.
Type: cell-based
Protocol: (§1) All cystobactamids were evaluated in MIC-assays on a panel of representative ESKAPE strains with focus on A. baumannii (Tables 1 and 2). Compared to our previous work[10],[17],[18], we specifically included more challenging test strains with known resistances against gyrase inhibitors.
(§2) 2.1 Materials and Methods
(§3) Strains were cultivated according to standard procedures. Bacterial cryo-cultures were
(§4) resuspended into fresh MHBII (cation adjusted) medium. The resuspension
(§5) assay plate (Corning, #3788).
(§6) in parallel as a positive control. […]

SMILES | antibacterial activity on the pathogen panel, in words
C#CC[C@H](NC(=O)c1ccc(NC(=O)c2ccc(C#N)cc2)cc1)C(=O)Nc1ccc(C(=O)Nc2ccc(-c3cn(-c4ccc(C(=O)O)cc4)nn3)c(O)c2OC(C)C)cc1 [Cmpd. 43] | inactive

Each compound was assayed on K. pneum. KP10581 (assay: MIC assay). Settings: Klebsiella pneumoniae; read-out: MIC K. pneum. KP10581.
Type: cell-based
Protocol: as §1, §2, §3, §4, §5, §6

SMILES | MIC
C#CC[C@H](NC(=O)c1ccc(NC(=O)c2ccc(C#N)cc2)cc1)C(=O)Nc1ccc(C(=O)Nc2ccc(-c3cn(-c4ccc(C(=O)O)cc4)nn3)c(O)c2OC(C)C)cc1 [Cmpd. 43] | > 64 µg/mL

The compounds below were run on A. baum. DSM-30008 (assay: MIC assay). Settings: Acinetobacter baumannii, DSM30008; reference strain; read-out: MIC A. baum. DSM-30008.
Type: cell-based
Protocol: as §1, §2, §3, §4, §5, §6

SMILES | MIC
C#CC[C@H](NC(=O)c1ccc(NC(=O)c2ccc(C#N)cc2)cc1)C(=O)Nc1ccc(C(=O)Nc2ccc(-c3cn(-c4ccc(C(=O)O)cc4)nn3)c(O)c2OC(C)C)cc1 [Cmpd. 43] | > 8 µg/mL

The compounds below were run on S. aur. ATCC-29213 (assay: MIC assay). Settings: Staphylococcus aureus, ATCC29213; reference strain; read-out: MIC S. aur. ATCC-29213.
Type: cell-based
Protocol: as §1, §2, §3, §4, §5, §6

SMILES | MIC
C#CC[C@H](NC(=O)c1ccc(NC(=O)c2ccc(C#N)cc2)cc1)C(=O)Nc1ccc(C(=O)Nc2ccc(-c3cn(-c4ccc(C(=O)O)cc4)nn3)c(O)c2OC(C)C)cc1 [Cmpd. 43] | > 64 µg/mL

These compounds were tested on S. pneum. DSM-11865 (PRSP) (assay: MIC assay). Settings: Streptococcus pneumoniae; read-out: MIC S. pneum. DSM-11865 (PRSP).
Type: cell-based
Protocol: as §1, §2, §3, §4, §5, §6

SMILES | MIC
C#CC[C@H](NC(=O)c1ccc(NC(=O)c2ccc(C#N)cc2)cc1)C(=O)Nc1ccc(C(=O)Nc2ccc(-c3cn(-c4ccc(C(=O)O)cc4)nn3)c(O)c2OC(C)C)cc1 [Cmpd. 43] | > 64 µg/mL

These compounds were tested on E. cloacae ATCC BAA-2468 (assay: MIC assay). Settings: Enterobacter cloacae, ATCCBAA2468; read-out: MIC E. cloacae ATCC BAA-2468.
Type: cell-based
Protocol: as §1, §2, §3, §4, §5, §6

SMILES | MIC
C#CC[C@H](NC(=O)c1ccc(NC(=O)c2ccc(C#N)cc2)cc1)C(=O)Nc1ccc(C(=O)Nc2ccc(-c3cn(-c4ccc(C(=O)O)cc4)nn3)c(O)c2OC(C)C)cc1 [Cmpd. 43] | > 64 µg/mL

What follows are compounds tested on K. pneum. R-1525 (assay: MIC assay). Settings: Klebsiella pneumoniae; read-out: MIC K. pneum. R-1525.
Type: cell-based
Protocol: as §1, §2, §3, §4, §5, §6

SMILES | MIC
C#CC[C@H](NC(=O)c1ccc(NC(=O)c2ccc(C#N)cc2)cc1)C(=O)Nc1ccc(C(=O)Nc2ccc(-c3cn(-c4ccc(C(=O)O)cc4)nn3)c(O)c2OC(C)C)cc1 [Cmpd. 43] | > 64 µg/mL

What follows are compounds tested on E. coli ATCC-25922 (assay: MIC assay). Settings: Escherichia coli, ATCC25922; reference strain; read-out: MIC E. coli ATCC-25922.
Type: cell-based
Protocol: as §1, §2, §3, §4, §5, §6

SMILES | MIC
C#CC[C@H](NC(=O)c1ccc(NC(=O)c2ccc(C#N)cc2)cc1)C(=O)Nc1ccc(C(=O)Nc2ccc(-c3cn(-c4ccc(C(=O)O)cc4)nn3)c(O)c2OC(C)C)cc1 [Cmpd. 43] | > 64 µg/mL

The compounds below were run on A. baum. R835 (assay: MIC assay). Settings: Acinetobacter baumannii; read-out: MIC A. baum. R835.
Type: cell-based
Protocol: as §1, §2, §3, §4, §5, §6

SMILES | MIC
C#CC[C@H](NC(=O)c1ccc(NC(=O)c2ccc(C#N)cc2)cc1)C(=O)Nc1ccc(C(=O)Nc2ccc(-c3cn(-c4ccc(C(=O)O)cc4)nn3)c(O)c2OC(C)C)cc1 [Cmpd. 43] | > 8 µg/mL

The compounds below were run on E. coli LM705 (assay: MIC assay). Settings: Escherichia coli, LM705, read-out: MIC E. coli LM705.
Type: cell-based
Protocol: as §1, §2, §3, §4, §5, §6

SMILES | MIC
C#CC[C@H](NC(=O)c1ccc(NC(=O)c2ccc(C#N)cc2)cc1)C(=O)Nc1ccc(C(=O)Nc2ccc(-c3cn(-c4ccc(C(=O)O)cc4)nn3)c(O)c2OC(C)C)cc1 [Cmpd. 43] | > 64 µg/mL

The compounds below were run on A. baum. ATCC BAA-1710 (assay: MIC assay). Settings: Acinetobacter baumannii, ATCCBAA1710; read-out: MIC A. baum. ATCC BAA-1710.
Type: cell-based
Protocol: as §1, §2, §3, §4, §5, §6

SMILES | MIC
C#CC[C@H](NC(=O)c1ccc(NC(=O)c2ccc(C#N)cc2)cc1)C(=O)Nc1ccc(C(=O)Nc2ccc(-c3cn(-c4ccc(C(=O)O)cc4)nn3)c(O)c2OC(C)C)cc1 [Cmpd. 43] | > 8 µg/mL

The compounds below were run on A. baum. CIP-107292 (assay: MIC assay). Settings: Acinetobacter baumannii, CIP107292; read-out: MIC A. baum. CIP-107292.
Type: cell-based
Protocol: as §1, §2, §3, §4, §5, §6

SMILES | MIC
C#CC[C@H](NC(=O)c1ccc(NC(=O)c2ccc(C#N)cc2)cc1)C(=O)Nc1ccc(C(=O)Nc2ccc(-c3cn(-c4ccc(C(=O)O)cc4)nn3)c(O)c2OC(C)C)cc1 [Cmpd. 43] | > 8 µg/mL

What follows are compounds tested on P. ae. PA14 (assay: MIC assay). Settings: Pseudomonas aeruginosa, PA14; reference strain; read-out: MIC P. ae. PA14.
Type: cell-based
Protocol: as §1, §2, §3, §4, §5, §6

SMILES | MIC
C#CC[C@H](NC(=O)c1ccc(NC(=O)c2ccc(C#N)cc2)cc1)C(=O)Nc1ccc(C(=O)Nc2ccc(-c3cn(-c4ccc(C(=O)O)cc4)nn3)c(O)c2OC(C)C)cc1 [Cmpd. 43] | > 64 µg/mL

What follows are compounds tested on A. baum. CIP-105742 (assay: MIC assay). Settings: Acinetobacter baumannii, CIP105742; read-out: MIC A. baum. CIP-105742.
Type: cell-based
Protocol: as §1, §2, §3, §4, §5, §6

SMILES | MIC
C#CC[C@H](NC(=O)c1ccc(NC(=O)c2ccc(C#N)cc2)cc1)C(=O)Nc1ccc(C(=O)Nc2ccc(-c3cn(-c4ccc(C(=O)O)cc4)nn3)c(O)c2OC(C)C)cc1 [Cmpd. 43] | > 8 µg/mL

What follows are compounds tested on P. ae. PA14ΔmexAB (assay: MIC assay). Settings: Pseudomonas aeruginosa, read-out: MIC P. ae. PA14ΔmexAB.
Type: cell-based
Protocol: as §1, §2, §3, §4, §5, §6

SMILES | MIC
C#CC[C@H](NC(=O)c1ccc(NC(=O)c2ccc(C#N)cc2)cc1)C(=O)Nc1ccc(C(=O)Nc2ccc(-c3cn(-c4ccc(C(=O)O)cc4)nn3)c(O)c2OC(C)C)cc1 [Cmpd. 43] | > 64 µg/mL

Each compound was assayed on K. pneum. CIP-104298 (assay: MIC assay). Settings: Klebsiella pneumoniae, CIP104298; reference strain; read-out: MIC K. pneum. CIP-104298.
Type: cell-based
Protocol: as §1, §2, §3, §4, §5, §6

SMILES | MIC
C#CC[C@H](NC(=O)c1ccc(NC(=O)c2ccc(C#N)cc2)cc1)C(=O)Nc1ccc(C(=O)Nc2ccc(-c3cn(-c4ccc(C(=O)O)cc4)nn3)c(O)c2OC(C)C)cc1 [Cmpd. 43] | > 64 µg/mL

The compounds below were run on E. faec. DSM-17050 (VRE) (assay: MIC assay). Settings: Enterococcus; read-out: MIC E. faec. DSM-17050 (VRE).
Type: cell-based, Enterococcus faecium
Protocol: as §1, §2, §3, §4, §5, §6

SMILES | MIC
C#CC[C@H](NC(=O)c1ccc(NC(=O)c2ccc(C#N)cc2)cc1)C(=O)Nc1ccc(C(=O)Nc2ccc(-c3cn(-c4ccc(C(=O)O)cc4)nn3)c(O)c2OC(C)C)cc1 [Cmpd. 43] | > 64 µg/mL

What follows are compounds tested on E. ae. CIP 106754 (assay: MIC assay). Settings: Klebsiella aerogenes, CIP106754, read-out: MIC E. ae. CIP 106754.
Type: cell-based, Enterobacter aerogenes
Protocol: as §1, §2, §3, §4, §5, §6

SMILES | MIC
C#CC[C@H](NC(=O)c1ccc(NC(=O)c2ccc(C#N)cc2)cc1)C(=O)Nc1ccc(C(=O)Nc2ccc(-c3cn(-c4ccc(C(=O)O)cc4)nn3)c(O)c2OC(C)C)cc1 [Cmpd. 43] | > 64 µg/mL
